Data published in ChEMBL document CHEMBL4507263, “Data for DCP probe BAY-474” (2021).

Key:
[1] = biological target: Serine/threonine-protein kinase D2 (Homo sapiens) (UniProt Q9BZL6); test: PKD2 (h) Millipore kinase activity assay; conditions: Compound concentration 1.0 uM
[2] = biological target: Serine/threonine-protein kinase Nek2 (Homo sapiens) (UniProt P51955); test: NEK2 (h) Millipore kinase activity assay; conditions: Compound concentration 1.0 uM
[3] = biological target: Sigma non-opioid intracellular receptor 1 (Homo sapiens) (UniProt Q99720); test: Inhibition of Sigma 1 at 10 µM in the Eurofins-Panlabs radioligand binding assay (Eurofins_assay_278110); set-up: ligand concentration 8 nM; conditions: Compound concentration 10.0 uM
[4] = biological target: Casein kinase I isoform gamma-2 (Homo sapiens) (UniProt P78368); test: CK1gamma2 (h) Millipore kinase activity assay; conditions: Compound concentration 1.0 uM
[5] = biological target: Vascular endothelial growth factor receptor 2 (Homo sapiens) (UniProt P35968); test: KDR (h) Millipore kinase activity assay; conditions: Compound concentration 1.0 uM
[6] = biological target: CDK9/cyclin T1 (Homo sapiens) (UniProt O60563+P50750); test: CDK9/cyclin T1 (h) Millipore kinase activity assay; assay type: protein-complex assay; conditions: Compound concentration 1.0 uM
[7] = biological target: Muscle, skeletal receptor tyrosine-protein kinase (Homo sapiens) (UniProt O15146); test: MuSK (h) Millipore kinase activity assay; conditions: Compound concentration 1.0 uM
[8] = biological target: RAF proto-oncogene serine/threonine-protein kinase (Homo sapiens) (UniProt P04049); test: c-RAF (h) Millipore kinase activity assay; conditions: Compound concentration 1.0 uM
[9] = biological target: Endothelin receptor type B (Homo sapiens) (UniProt P24530); conditions: Compound concentration 10.0 uM
[10] = biological target: Calcium/calmodulin-dependent protein kinase type 1 (Homo sapiens) (UniProt Q14012); test: CaMKI (h) Millipore kinase activity assay; conditions: Compound concentration 1.0 uM
[11] = biological target: Histamine H1 receptor (Homo sapiens) (UniProt P35367); conditions: Compound concentration 10.0 uM
[12] = biological target: RAC-gamma serine/threonine-protein kinase (Homo sapiens) (UniProt Q9Y243); test: PKBgamma (h) Millipore kinase activity assay; conditions: Compound concentration 1.0 uM
[13] = biological target: Mitogen-activated protein kinase 9 (Homo sapiens) (UniProt P45984); test: JNK2alpha2 (h) Millipore kinase activity assay; conditions: Compound concentration 1.0 uM
[14] = biological target: Interleukin-1 receptor-associated kinase 4 (Homo sapiens) (UniProt Q9NWZ3); test: IRAK4 (h) Millipore kinase activity assay; conditions: Compound concentration 1.0 uM
[15] = biological target: Neuropeptide Y receptor type 1 (Homo sapiens) (UniProt P25929); test: Inhibition of Neuropeptide Y Y1 at 10 µM in the Eurofins-Panlabs radioligand binding assay (Eurofins_assay_257010); conditions: Compound concentration 10.0 uM
[16] = biological target: G protein-coupled receptor kinase 6 (Homo sapiens) (UniProt P43250); test: GRK6 (h) Millipore kinase activity assay; conditions: Compound concentration 1.0 uM
[17] = biological target: Serine/threonine-protein kinase MRCK alpha (Homo sapiens) (UniProt Q5VT25); conditions: Compound concentration 1000.0 nM
[18] = biological target: Bone morphogenetic protein receptor type-1A (Homo sapiens) (UniProt P36894); conditions: Compound concentration 1000.0 nM
[19] = biological target: Protein-tyrosine kinase 6 (Homo sapiens) (UniProt Q13882); conditions: Compound concentration 1000.0 nM
[20] = biological target: Rhodopsin kinase GRK1 (Homo sapiens) (UniProt Q15835); conditions: Compound concentration 1000.0 nM
[21] = tested on: Hepatocyte growth factor receptor (Homo sapiens), P08581 [M1250T]; conditions: Compound concentration 1000.0 nM
[22] = tested on: Tyrosine-protein kinase ABL1 (Homo sapiens), P00519 [Q252H]; conditions: Compound concentration 1000.0 nM
[23] = biological target: Serine/threonine-protein kinase PAK 4 (Homo sapiens) (UniProt O96013); conditions: Compound concentration 1000.0 nM
[24] = biological target: Sodium-dependent noradrenaline transporter (Homo sapiens) (UniProt P23975); conditions: Compound concentration 10.0 uM
[25] = biological target: Transient receptor potential cation channel subfamily M member 6 (Homo sapiens) (UniProt Q9BX84); conditions: Compound concentration 1000.0 nM
[26] = biological target: Mitogen-activated protein kinase kinase kinase kinase 2 (Homo sapiens) (UniProt Q12851); conditions: Compound concentration 1000.0 nM
[27] = biological target: Serine/threonine-protein kinase 32C (Homo sapiens) (UniProt Q86UX6); conditions: Compound concentration 1000.0 nM
[28] = biological target: Atypical kinase COQ8A, mitochondrial (Homo sapiens) (UniProt Q8NI60); conditions: Compound concentration 1000.0 nM
[29] = biological target: Mitogen-activated protein kinase kinase kinase kinase 4 (Homo sapiens) (UniProt O95819); conditions: Compound concentration 1000.0 nM
D(1B) dopamine receptor = D(1B) dopamine receptor (Homo sapiens, UniProt P21918); test: GPCRScan assay: inhibition of D5; set-up: radioligand conc. used [nm] 2.0 – 3.0, parental cells HEKT
[30] = biological target: Leucine-rich repeat serine/threonine-protein kinase 2 (Homo sapiens) (UniProt Q5S007); conditions: Compound concentration 1000.0 nM
[31] = biological target: High affinity nerve growth factor receptor (Homo sapiens) (UniProt P04629); conditions: Compound concentration 1000.0 nM
[32] = biological target: Activin receptor type-1B (Homo sapiens) (UniProt P36896); conditions: Compound concentration 1000.0 nM
[33] = biological target: Serine/threonine-protein kinase PknB (Mycobacterium tuberculosis) (UniProt P9WI81); conditions: Compound concentration 1000.0 nM
[34] = biological target: SRSF protein kinase 2 (Homo sapiens) (UniProt P78362); conditions: Compound concentration 1000.0 nM
[35] = biological target: Phosphatidylinositol 4-phosphate 5-kinase type-1 alpha (Homo sapiens) (UniProt Q99755); conditions: Compound concentration 1000.0 nM
[36] = biological target: Mitogen-activated protein kinase 7 (Homo sapiens) (UniProt Q13164); conditions: Compound concentration 1000.0 nM
[37] = biological target: LIM domain kinase 1 (Homo sapiens) (UniProt P53667); conditions: Compound concentration 1000.0 nM
[38] = biological target: Cyclin-dependent kinase 5 (Homo sapiens) (UniProt Q00535); conditions: Compound concentration 1000.0 nM
[39] = biological target: Fibroblast growth factor receptor 2 (Homo sapiens) (UniProt P21802); conditions: Compound concentration 1000.0 nM
[40] = biological target: Serine/threonine-protein kinase ICK (Homo sapiens) (UniProt Q9UPZ9); conditions: Compound concentration 1000.0 nM
[41] = biological target: Serine/threonine-protein kinase Sgk2 (Homo sapiens) (UniProt Q9HBY8); conditions: Compound concentration 1000.0 nM
[42] = biological target: Serine/threonine-protein kinase VRK2 (Homo sapiens) (UniProt Q86Y07); conditions: Compound concentration 1000.0 nM
[43] = biological target: TGF-beta receptor type-2 (Homo sapiens) (UniProt P37173); conditions: Compound concentration 1000.0 nM
[44] = tested on: Phosphatidylinositol 4,5-bisphosphate 3-kinase catalytic subunit alpha isoform (Homo sapiens), P42336 [H1047Y]; conditions: Compound concentration 1000.0 nM

Chain of Neuropeptide Y receptor type 1 (Homo sapiens) (P25929 whole entry): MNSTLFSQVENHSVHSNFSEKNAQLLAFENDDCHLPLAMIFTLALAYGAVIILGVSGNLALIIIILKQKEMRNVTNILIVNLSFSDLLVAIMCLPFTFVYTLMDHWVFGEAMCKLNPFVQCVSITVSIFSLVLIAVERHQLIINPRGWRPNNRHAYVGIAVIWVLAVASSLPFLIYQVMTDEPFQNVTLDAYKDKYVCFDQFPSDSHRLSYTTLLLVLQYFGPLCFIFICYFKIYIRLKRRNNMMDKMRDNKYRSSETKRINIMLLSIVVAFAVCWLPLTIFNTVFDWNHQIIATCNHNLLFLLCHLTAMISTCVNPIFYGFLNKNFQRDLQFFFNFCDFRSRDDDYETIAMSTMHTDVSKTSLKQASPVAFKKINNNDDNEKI
Chain of Serine/threonine-protein kinase ICK (Homo sapiens) (Q9UPZ9 whole entry): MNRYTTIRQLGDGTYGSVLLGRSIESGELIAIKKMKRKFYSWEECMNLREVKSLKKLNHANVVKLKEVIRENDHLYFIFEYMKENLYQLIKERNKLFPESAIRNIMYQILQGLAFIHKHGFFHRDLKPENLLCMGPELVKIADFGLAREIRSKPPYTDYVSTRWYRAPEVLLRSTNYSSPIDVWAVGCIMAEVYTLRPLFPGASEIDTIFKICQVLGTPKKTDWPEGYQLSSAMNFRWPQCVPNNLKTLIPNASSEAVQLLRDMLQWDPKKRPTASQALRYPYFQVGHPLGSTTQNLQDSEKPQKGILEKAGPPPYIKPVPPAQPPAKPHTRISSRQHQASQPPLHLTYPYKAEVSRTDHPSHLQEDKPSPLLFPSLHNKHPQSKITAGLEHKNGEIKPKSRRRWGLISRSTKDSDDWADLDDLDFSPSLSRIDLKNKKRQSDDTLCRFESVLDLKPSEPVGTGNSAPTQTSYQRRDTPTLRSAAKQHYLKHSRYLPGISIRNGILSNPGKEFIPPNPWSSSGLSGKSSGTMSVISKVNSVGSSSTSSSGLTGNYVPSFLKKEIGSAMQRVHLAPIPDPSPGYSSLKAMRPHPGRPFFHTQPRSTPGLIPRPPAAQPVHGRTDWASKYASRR
Chain of Rhodopsin kinase GRK1 (Homo sapiens) (Q15835 whole entry): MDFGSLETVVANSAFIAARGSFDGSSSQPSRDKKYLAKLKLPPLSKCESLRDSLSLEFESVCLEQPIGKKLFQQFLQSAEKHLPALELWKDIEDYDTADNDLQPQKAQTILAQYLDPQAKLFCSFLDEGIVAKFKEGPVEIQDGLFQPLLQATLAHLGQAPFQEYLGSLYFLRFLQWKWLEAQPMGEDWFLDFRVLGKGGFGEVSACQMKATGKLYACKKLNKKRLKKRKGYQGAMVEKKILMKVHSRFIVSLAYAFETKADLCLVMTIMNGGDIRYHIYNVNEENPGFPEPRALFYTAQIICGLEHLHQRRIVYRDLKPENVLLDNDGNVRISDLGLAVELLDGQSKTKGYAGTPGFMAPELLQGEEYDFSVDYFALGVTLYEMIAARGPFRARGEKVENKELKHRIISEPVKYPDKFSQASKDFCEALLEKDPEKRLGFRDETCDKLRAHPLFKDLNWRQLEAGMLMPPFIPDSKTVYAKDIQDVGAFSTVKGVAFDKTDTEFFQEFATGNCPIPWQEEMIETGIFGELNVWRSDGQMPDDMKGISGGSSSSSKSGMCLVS
Chain of Cyclin-dependent kinase 5 (Homo sapiens) (Q00535 whole entry, looked up): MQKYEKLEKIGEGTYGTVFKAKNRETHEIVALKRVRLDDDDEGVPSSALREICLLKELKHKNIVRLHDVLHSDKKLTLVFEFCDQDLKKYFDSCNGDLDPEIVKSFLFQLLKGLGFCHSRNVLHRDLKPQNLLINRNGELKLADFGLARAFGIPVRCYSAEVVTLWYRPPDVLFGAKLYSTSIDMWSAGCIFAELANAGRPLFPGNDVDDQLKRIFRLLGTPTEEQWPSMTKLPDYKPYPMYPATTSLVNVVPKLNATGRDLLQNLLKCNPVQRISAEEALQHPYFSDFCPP
Chain of Phosphatidylinositol 4-phosphate 5-kinase type-1 alpha (Homo sapiens) (Q99755 whole entry): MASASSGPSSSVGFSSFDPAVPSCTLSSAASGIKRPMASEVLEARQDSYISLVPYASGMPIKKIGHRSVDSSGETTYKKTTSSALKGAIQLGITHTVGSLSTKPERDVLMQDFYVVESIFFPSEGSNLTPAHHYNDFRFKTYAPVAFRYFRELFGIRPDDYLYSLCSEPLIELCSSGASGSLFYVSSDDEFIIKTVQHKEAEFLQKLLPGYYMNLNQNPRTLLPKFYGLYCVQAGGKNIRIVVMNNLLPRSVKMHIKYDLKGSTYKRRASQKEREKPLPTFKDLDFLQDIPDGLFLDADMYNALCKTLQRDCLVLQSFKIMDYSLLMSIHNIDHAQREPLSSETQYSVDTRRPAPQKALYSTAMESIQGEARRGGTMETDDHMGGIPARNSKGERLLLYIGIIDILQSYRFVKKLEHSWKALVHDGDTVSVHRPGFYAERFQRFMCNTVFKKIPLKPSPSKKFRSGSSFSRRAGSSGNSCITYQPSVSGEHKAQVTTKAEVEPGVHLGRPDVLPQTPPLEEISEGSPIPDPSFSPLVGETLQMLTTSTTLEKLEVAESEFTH
Chain of Serine/threonine-protein kinase Sgk2 (Homo sapiens) (Q9HBY8 whole entry): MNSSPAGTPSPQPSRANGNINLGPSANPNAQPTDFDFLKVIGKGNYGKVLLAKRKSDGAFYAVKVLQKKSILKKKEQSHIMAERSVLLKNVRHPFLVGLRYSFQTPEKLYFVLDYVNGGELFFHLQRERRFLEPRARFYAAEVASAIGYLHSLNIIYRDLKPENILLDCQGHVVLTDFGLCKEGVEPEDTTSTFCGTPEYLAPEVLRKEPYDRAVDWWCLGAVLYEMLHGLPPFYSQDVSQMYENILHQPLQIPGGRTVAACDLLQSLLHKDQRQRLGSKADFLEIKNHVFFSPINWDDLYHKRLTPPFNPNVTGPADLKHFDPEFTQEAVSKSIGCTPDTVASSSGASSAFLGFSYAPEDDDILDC
Chain of Transient receptor potential cation channel subfamily M member 6 (Homo sapiens) (Q9BX84 whole entry): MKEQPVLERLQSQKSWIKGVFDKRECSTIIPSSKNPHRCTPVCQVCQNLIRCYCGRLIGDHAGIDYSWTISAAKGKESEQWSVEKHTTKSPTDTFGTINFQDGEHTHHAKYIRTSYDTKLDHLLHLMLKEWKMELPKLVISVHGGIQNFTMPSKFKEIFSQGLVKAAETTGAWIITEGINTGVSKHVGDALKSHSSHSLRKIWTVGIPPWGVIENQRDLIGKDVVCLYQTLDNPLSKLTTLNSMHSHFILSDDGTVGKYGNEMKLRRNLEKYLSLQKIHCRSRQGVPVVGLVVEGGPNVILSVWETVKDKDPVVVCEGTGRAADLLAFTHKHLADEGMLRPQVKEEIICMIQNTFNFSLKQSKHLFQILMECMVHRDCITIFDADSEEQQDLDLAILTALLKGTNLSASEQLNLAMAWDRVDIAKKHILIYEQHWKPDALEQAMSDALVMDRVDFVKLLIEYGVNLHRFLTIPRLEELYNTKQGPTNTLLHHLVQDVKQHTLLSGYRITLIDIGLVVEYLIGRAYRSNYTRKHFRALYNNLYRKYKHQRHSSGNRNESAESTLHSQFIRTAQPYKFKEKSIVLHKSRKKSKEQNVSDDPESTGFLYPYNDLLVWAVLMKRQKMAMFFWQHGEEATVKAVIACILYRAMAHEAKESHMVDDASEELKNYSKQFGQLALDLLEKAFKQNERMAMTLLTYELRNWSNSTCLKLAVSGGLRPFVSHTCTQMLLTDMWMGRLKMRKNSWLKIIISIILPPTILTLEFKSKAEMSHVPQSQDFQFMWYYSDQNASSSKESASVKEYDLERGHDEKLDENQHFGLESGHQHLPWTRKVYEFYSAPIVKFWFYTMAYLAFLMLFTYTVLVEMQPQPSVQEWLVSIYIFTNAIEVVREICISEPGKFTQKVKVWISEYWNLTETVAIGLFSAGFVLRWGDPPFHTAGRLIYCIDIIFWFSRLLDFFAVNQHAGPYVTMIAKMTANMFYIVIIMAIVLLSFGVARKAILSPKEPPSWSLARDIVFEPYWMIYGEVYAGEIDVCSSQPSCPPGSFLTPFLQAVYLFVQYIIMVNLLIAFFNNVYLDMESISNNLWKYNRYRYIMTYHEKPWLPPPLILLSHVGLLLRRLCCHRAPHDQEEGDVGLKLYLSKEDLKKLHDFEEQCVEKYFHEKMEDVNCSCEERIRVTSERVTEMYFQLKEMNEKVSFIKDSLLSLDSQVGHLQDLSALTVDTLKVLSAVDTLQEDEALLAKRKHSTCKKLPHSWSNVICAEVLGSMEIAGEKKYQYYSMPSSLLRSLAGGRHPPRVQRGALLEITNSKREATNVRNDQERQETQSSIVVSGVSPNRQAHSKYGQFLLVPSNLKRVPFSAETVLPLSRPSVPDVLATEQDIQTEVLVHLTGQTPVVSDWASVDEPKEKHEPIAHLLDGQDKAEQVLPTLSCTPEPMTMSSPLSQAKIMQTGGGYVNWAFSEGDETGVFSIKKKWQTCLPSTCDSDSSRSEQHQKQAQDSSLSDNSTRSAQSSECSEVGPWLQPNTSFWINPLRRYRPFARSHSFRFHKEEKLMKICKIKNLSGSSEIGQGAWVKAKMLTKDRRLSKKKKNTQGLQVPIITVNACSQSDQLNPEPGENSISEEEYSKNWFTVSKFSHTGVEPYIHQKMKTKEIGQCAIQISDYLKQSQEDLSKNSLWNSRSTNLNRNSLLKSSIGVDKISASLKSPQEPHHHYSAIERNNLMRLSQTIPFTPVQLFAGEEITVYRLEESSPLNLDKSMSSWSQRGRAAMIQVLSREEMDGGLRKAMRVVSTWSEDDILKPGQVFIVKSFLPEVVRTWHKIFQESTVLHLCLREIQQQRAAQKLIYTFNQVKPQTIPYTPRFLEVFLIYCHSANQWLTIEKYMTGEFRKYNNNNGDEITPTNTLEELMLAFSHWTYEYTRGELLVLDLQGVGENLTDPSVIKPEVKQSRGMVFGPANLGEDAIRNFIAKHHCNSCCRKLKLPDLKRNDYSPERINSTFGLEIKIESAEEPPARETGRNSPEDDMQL
Chain of Sigma non-opioid intracellular receptor 1 (Homo sapiens) (Q99720 whole entry, canonical isoform): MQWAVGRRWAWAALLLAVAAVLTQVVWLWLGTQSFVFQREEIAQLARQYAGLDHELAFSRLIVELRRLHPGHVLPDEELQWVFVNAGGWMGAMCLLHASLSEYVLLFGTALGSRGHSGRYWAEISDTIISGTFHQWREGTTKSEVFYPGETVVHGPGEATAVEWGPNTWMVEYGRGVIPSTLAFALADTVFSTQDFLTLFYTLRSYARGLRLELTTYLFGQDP

`CC1=C(C#N)C(c2ccc3[nH]nc(C)c3c2)C(C#N)=C(C)N1` [BAY-474] showed an inhibition [1] of 3%, an inhibition [2] of -5% and an inhibition [3] of -7%. For the same compound, the inhibition [4] was 19%, the inhibition [5] was 4% and the inhibition [6] was -10%. It also gave an inhibition [7] of 19%, an inhibition [8] of 1% and an inhibition [9] of 18%. It also gave an inhibition [10] of -8%, an inhibition [11] of 17.7% and an inhibition [12] of -4%. It also gave an inhibition [13] of 17%, an inhibition [14] of 0% and an inhibition [15] of 1%. It also gave an inhibition [16] of -2%.
`CC1=C(C#N)[C@@H](c2ccc3[nH]nc(C)c3c2)C(C#N)=C(c2ccc(Cl)cc2)N1` [BAY-827] gave a residual activity [17] of 82.2%, a residual activity [18] of 98.6% and a residual activity [19] of 100%. For the same compound, the residual activity [20] was 65.5%, the residual activity [21] was 25.1% and the residual activity [22] was 43.8%. It also gave a residual activity [23] of 100%, an inhibition [24] of 8.56% and a residual activity [25] of 100%. The residual activity [26] was 100%, the residual activity [27] was 91.2% and the residual activity [28] was 97.8%. The residual activity [29] was 100%, the Ki (D(1B) dopamine receptor) was 10 µM and the residual activity [30] was 91.7%. The residual activity [31] was 84.6%, the residual activity [32] was 100% and the residual activity [33] was 100%. For the same compound, the residual activity [34] was 100%, the residual activity [35] was 100% and the residual activity [36] was 90%. The residual activity [37] was 100%, the residual activity [38] was 100% and the residual activity [39] was 74.3%. For the same compound, the residual activity [40] was 76.2%, the residual activity [41] was 100% and the residual activity [42] was 100%. For the same compound, the residual activity [43] was 74.6% and the residual activity [44] was 35.8%.
